# Measured values: paper PMC4549708, “Inhibition of neuraminidase by Ganoderma triterpenoids and implications for neuraminidase inhibitor design” (Scientific Reports, 2015)
# Key:
# in vitro = details: human
# NA (H1N1,09) = NA (H1N1,09) (Influenza A virus, UniProt C3W5S3); test: biochemical; details: for inhibition at 200 µM: 200 μM of each compound, n = 3, means ± standard deviation, read-out: Inhibition rate (%) NA(H1N1,09)
# NA (H5N1) = NA (H5N1) (Influenza A virus, UniProt K0C216); test: biochemical; details: read-out: Inhibition rate (%) NA (H5N1)
# NA (H7N9) = format: biochemical; details: 200 µM
Compound,CC50 (in vitro),"inhibition at 200 µM (NA (H1N1,09))","IC50 (NA (H1N1,09); in vitro NA inhibition assay (n = 3))",inhibition at 200 µM (NA (H5N1)),Inhibition rate (%) NA(H7N9) (NA (H7N9))
"C/C(=C/CC[C@@H](C)[C@H]1CC[C@@]2(C)C3=CC[C@H]4C(C)(C)C(=O)CC[C@]4(C)C3=CC[C@]12C)C(=O)O [Compound 5, Ganoderic acid S]",80.9 ± 6.8 µM,69.4 ± 2.3%,80.5 ± 24.9 µM,86.7 ± 0.5%,31.9 ± 2.3%
"C/C(=C\CC[C@@H](C)[C@H]1CC[C@@]2(C)C3=CC[C@H]4C(C)(C)[C@@H](O)CC[C@]4(C)C3=CC[C@]12C)C(=O)O [Compound 6, Ganoderic acid Y]",18 ± 1.3 µM,63 ± 2.5%,–,78.2 ± 3.2%,17.8 ± 1.5%
"C[C@H](CC(=O)C[C@@H](C)[C@H]1C[C@H](O)[C@@]2(C)C3=C(C(=O)C[C@]12C)[C@@]1(C)CCC(=O)C(C)(C)[C@@H]1C[C@@H]3O)C(=O)O [Compound 7, Ganoderic acid A]",> 200 µM,5 ± 5.4%,–,31.4 ± 7.3%,6.3 ± 2.2%
"C/C(=C\C(=O)CC(C)C(=O)O)[C@H]1C[C@H](O)[C@@]2(C)C3=C(C(=O)C[C@]12C)[C@@]1(C)CCC(=O)C(C)(C)[C@@H]1C[C@@H]3O (stereo partly shown) [Compound 8, Ganoderenic acid A]",> 200 µM,35.3 ± 3.7%,–,35.9 ± 7.7%,23.3 ± 3.1%
"C[C@H](CC(=O)C[C@@H](C)[C@H]1C[C@H](O)[C@@]2(C)C3=C(C(=O)C[C@]12C)[C@@]1(C)CC[C@H](O)C(C)(C)[C@@H]1C[C@@H]3O)C(=O)O [Compound 9, Ganoderic acid C2]",> 200 µM,32.4 ± 4.5%,–,60.8 ± 4.3%,27.5 ± 2.3%
"CC(CC(=O)C[C@@H](C)[C@H]1CC(=O)[C@@]2(C)C3=C(C(=O)C[C@]12C)[C@@]1(C)CC[C@H](O)C(C)(C)[C@@H]1CC3=O)C(=O)O (stereo partly shown) [Compound 10, Ganoderic acid AM1]",> 200 µM,28.3 ± 6.2%,–,75.2 ± 2.3%,14.1 ± 5.1%
"CC(=O)O[C@@H]1C(=O)C2=C([C@@H](O)C[C@H]3C(C)(C)[C@@H](O)CC[C@]23C)[C@]2(C)C(=O)C[C@H]([C@H](C)CC(=O)CC(C)C(=O)O)[C@@]12C (stereo partly shown) [Compound 11, Ganoderic acid K]",> 200 µM,28.8 ± 2%,–,57.7 ± 10.9%,28.5 ± 1.9%
"C/C(=C\C(=O)CC(C)C(=O)O)[C@H]1CC(=O)[C@@]2(C)C3=C(C(=O)C[C@]12C)[C@@]1(C)CC[C@H](O)C(C)(C)[C@@H]1CC3=O (stereo partly shown) [Compound 12, Ganoderenic acid H]",> 200 µM,58 ± 3%,–,77.7 ± 3.9%,38.6 ± 6.2%
"CC(=O)O[C@@H]1C(=O)C2=C(C(=O)C[C@H]3C(C)(C)[C@@H](O)CC[C@]23C)[C@]2(C)C(=O)C[C@H]([C@H](C)CC(=O)CC(C)C(=O)O)[C@@]12C (stereo partly shown) [Compound 13, Ganoderic acid H]",> 200 µM,35 ± 4.5%,–,64.1 ± 4.5%,27.2 ± 3.2%
"CC(CC(=O)C[C@@H](C)[C@H]1CC(=O)[C@@]2(C)C3=C(C(=O)C[C@]12C)[C@@]1(C)CC[C@H](O)C(C)(C)[C@@H]1C[C@@H]3O)C(=O)O (stereo partly shown) [Compound 14, Ganoderic acid B]",> 200 µM,6.9 ± 6.8%,–,3 ± 1%,5.5 ± 0.4%
"C/C(=C\C(=O)CC(C)C(=O)O)[C@H]1CC(=O)[C@@]2(C)C3=C(C(=O)C[C@]12C)[C@@]1(C)CCC(=O)C(C)(C)[C@@H]1CC3=O (stereo partly shown) [Compound 15, Ganoderenic acid F]",111 ± 17.9 µM,53.1 ± 1.6%,–,62.8 ± 4%,34.2 ± 4.7%
"CC(CC(=O)C[C@@H](C)[C@H]1CC(=O)[C@@]2(C)C3=C(C(=O)[C@@H](O)[C@]12C)[C@@]1(C)CC[C@H](O)C(C)(C)[C@@H]1CC3=O)C(=O)O (stereo partly shown) [Compound 18, Ganoderic acid C6]",> 200 µM,17.8 ± 1.2%,–,15.6 ± 22.3%,25.7 ± 1.3%
"C[C@H](CC(=O)C[C@@H](C)[C@H]1CC(=O)[C@@]2(C)C3=C(C(=O)C[C@]12C)[C@@]1(C)CCC(=O)C(C)(C)[C@@H]1C[C@@H]3O)C(=O)O [Compound 19, Ganoderic acid C1]",> 200 µM,21.1 ± 4.1%,–,43.3 ± 6.1%,26.2 ± 4.1%
"C/C(=C\CC[C@@H](C)[C@H]1CC[C@@]2(C)C3=C(CC[C@]12C)[C@@]1(C)CCC(=O)C(C)(C)[C@@H]1CC3=O)C(=O)O [Compound 20, Ganoderic acid DM]",> 200 µM,50.4 ± 1.5%,–,55.2 ± 0.7%,29.4 ± 3.8%
"CC(CC(=O)C[C@@H](C)[C@H]1C[C@H](O)[C@@]2(C)C3=C(C(=O)C[C@]12C)[C@@]1(C)CCC(=O)C(C)(C)[C@@H]1CC3)C(=O)O (stereo partly shown) [Compound 21, Ganolucidic acid A]",> 200 µM,19.4 ± 2.7%,–,49.8 ± 7.7%,16.7 ± 3.4%
"C/C(=C\[C@@H](O)C[C@@H](C)[C@H]1CC(=O)[C@@]2(C)C3=C(C(=O)C[C@]12C)[C@@]1(C)CCC(=O)C(C)(C)[C@@H]1C[C@@H]3O)C(=O)O [Compound 23, Ganoderic acid LM2]",> 200 µM,40.9 ± 6.2%,–,67.1 ± 5.2%,12.7 ± 9.6%
"CC(=O)O[C@@H]1C(=O)C2=C(C(=O)C[C@H]3C(C)(C)C(=O)CC[C@]23C)[C@]2(C)C(=O)C[C@H]([C@H](C)CC(=O)CC(C)C(=O)O)[C@@]12C (stereo partly shown) [Compound 24, Ganoderic acid F]",> 200 µM,12.9 ± 11.4%,–,48.6 ± 7.4%,14.8 ± 2.6%
"C/C(=C\CC[C@@H](C)[C@H]1CC[C@@]2(C)C3=CC[C@H]4C(C)(C)C(=O)CC[C@]4(C)C3=CC[C@]12C)CO [Compound 25, Ganoderol A]",20.4 ± 0.9 µM,48.3 ± 2.2%,–,77.1 ± 0.4%,15.9 ± 3.7%
"C/C(=C\CC[C@@H](C)[C@H]1CC[C@@]2(C)C3=CC[C@H]4C(C)(C)[C@@H](O)CC[C@]4(C)C3=CC[C@]12C)CO [Compound 26, Ganoderol B]",> 200 µM,51 ± 2.6%,–,71.6 ± 2.1%,21.8 ± 3.5%
"C[C@H](CCC=C(CO)CO)[C@H]1CC[C@@]2(C)C3=CC[C@H]4C(C)(C)C(=O)CC[C@]4(C)C3=CC[C@]12C [Compound 27, Ganoderiol F]",> 200 µM,52.9 ± 2%,–,33.6 ± 12.1%,29.5 ± 4.3%
"C[C@H](CC[C@H](O)C(C)(C)O)[C@H]1CC[C@@]2(C)C3=CC[C@H]4C(C)(C)C(=O)CC[C@]4(C)C3=CC[C@]12C [Compound 28, Ganodermanondiol]",64.9 ± 10 µM,–,–,87.9 ± 1.8%,24.3 ± 1.7%
"C[C@H](CC[C@H](O)[C@](C)(O)CO)[C@H]1CC[C@@]2(C)C3=CC[C@H]4C(C)(C)C(=O)CC[C@]4(C)C3=CC[C@]12C [Compound 29, Ganodermanontriol]",> 200 µM,35.3 ± 5.2%,–,60.5 ± 6.8%,10.3 ± 3.5%
